Measurements published in article PMC7928338, “Distribution of Glyphosate-Resistance in Echinochloa crus-galli Across Agriculture Areas in the Iberian Peninsula” (Frontiers in Plant Science, 2021).
Where two headings read alike, the source gives them in different places.

Columns and labels:
[1] = system: 5-enolpyruvylshikimate-3-phosphate synthase (EPSPS), glyphosate-resistant (R) and very resistant (VR) populations; details: read-out: I50, glyphosate 0-1000 μM, stated gain
Description: EPSPS activity in leaf extract, inorganic phosphate release on 5-enolpyruvylshikimate-3-phosphate synthase (EPSPS), glyphosate-resistant (R) and very resistant (VR) populations

[2] = system: T1, 5-enolpyruvylshikimate-3-phosphate synthase (EPSPS), glyphosate-susceptible populations; test: EPSPS activity in leaf extract, inorganic phosphate release; type: biochemical, Echinochloa crus-galli; details: population E2 (susceptible); glyphosate 0-1000 μM; read-out: I50
T1 construct: native enzyme in leaf extract; hexaploid species, homoeologous EPSPS copies not distinguished

O=C(O)CNCP(=O)(O)O [glyphosate]
IC50 ([1]; population E7): 11.7 µM | IC50 ([1]; population E9): 18.1 µM | IC50 ([1]; population E10, possible EPSPS overexpression): 54.8 µM | IC50 ([1]; population E12, possible EPSPS overexpression): 45.6 µM | IC50 [2]: 0.8 µM
